{"source": "patent US20190282560A1", "about": "“1-Methylnicotinamide for the Treatment of Diseases Associated With C-Reactive Protein” (Pharmena S.A., priority 2016, published 2019)", "system": "C-reactive protein", "assay": "Randomized, double-blind, placebo controlled, forced dose-escalation, multicenter study; hs-CRP blood levels", "assay_type": "in vivo, human", "text": "The study was a randomized, double-blind, placebo controlled, forced dose-escalation, multicenter study.\nInclusion Criteria • Patients were at least 18 years of age and ≤80 years of age at the time of informed consent; • Women of childbearing potential must have a negative urine pregnancy test at screening and visit 4.\nExclusion Criteria • Patients who were pregnant, planning to become pregnant during the study, or nursing • Patients who had with clinically significant electrocardiographic abnormalities at visit 1 or visit 4; • Patients who had body mass index>45 kg/m2 at visit 1; • Patients who had weight change of >5% of initial body weight between visits 1 and 4 (randomization); • Patients who had poorly controlled diabetes defined as a hemoglobin A1c>9.5% prior to visit 4 (randomization); • Patients who had evidence of hepatic disease (ALT or AST greater than 2.0 ULN, bilirubin greater than 1.5 ULN, or cirrhosis) at visit 1; • Patients who had renal dysfunction defined as glomerular filtration rate (GFR)<60 mL/min/1.73 m2 at visit 1; • Patients who had hypothyroidism that was not treated or not stable for at least 6 months prior to study entry; • Patients who had poorly controlled hypertension defined as a mean systolic blood pressure above 160 mm Hg and/or diastolic blood pressure above 100 mmHg at visit 1.\nFollowing signature of informed consent, 164 patients received 1000 mg placebo three times daily with meals in a single-blind manner for a dietary-controlled baseline period of 6 to 8 weeks. From the sample of eligible subjects who completed the 6 to 8 week dietary-controlled baseline period, 71 subjects (22 received placebo and 49 received 1-MNA chloride) meeting all inclusion and no exclusion criteria were randomized in a double-blind manner ([…]) to the treatment arm. The treatment periods were: weeks 1 and 2 two 500 mg tablets administered three times daily with meals (total daily dose 3000 mg); weeks 3 to 14 two 1000 mg tablets administered three times daily with meals (total daily dose 6000 mg). Down titration to 3000 mg daily was allowed in the event that a subject could not tolerate the 6000 mg daily treatment for the stipulated period. Under this scenario, the down-titrated subject remained on the tolerated dose for the duration of the trial. hs-CRP blood levels were evaluated during the baseline period, upon randomization and throughout the active treatment period. All blood samples were collected following a 12-hour fast. Throughout the study, the subjects were required to adhere to a heart-healthy diet and abstain from/minimize ethyl alcohol intake. Safety and tolerability were assessed throughout the trial through the evaluation of physical exams, electrocardiograms, routine hematology ad blood chemistry testing, vital signs and adverse events.\nIn the analysis, adjusted geometric mean percent change was obtained by exponentiating the adjusted mean from the ANCOVA model, then subtracting 1 and multiplying by 100. Bounds of the 95% confidence intervals were obtained similarly. Based on the ANCOVA model of the change in log-transformed CRP including treatment group and log-transformed baseline value, the change in CRP level in blood in this study was approximately −17% relative to placebo.", "key": {"[1]": {"settings": "end of study, oral 3000 mg daily weeks 1-2, 6000 mg daily weeks 3 to 14, n 45"}}, "data": [{"molecule": "C[n+]1cccc(C(N)=O)c1", "note": "[1-MNA chloride, 1-methylnicotinamide]", "values": [{"measurement": "Lowering of blood or serum CRP level from baseline", "setting": "baseline to end of study, 3000 then 6000 mg daily, 14 weeks", "result": "about 16%"}, {"measurement": "Adjusted geometric mean percent change from baseline in C-reactive protein", "setting": "baseline to end of study, ANCOVA on log-transformed CRP, 3000 then 6000 mg daily, 14 weeks", "result": "−15.66", "unit": "%"}, {"measurement": "C-reactive protein, Baseline, Geometric mean", "setting": "baseline, before double-blind treatment, n 49", "result": 2.9, "unit": "mg/L"}, {"measurement": "C-reactive protein, Baseline, Mean ± SD", "setting": "baseline, before double-blind treatment, patients with serum triglycerides 200-500 mg/dL, n 49", "result": "4.0 ± 5.4", "unit": "mg/L"}, {"measurement": "C-reactive protein, End of study, Geometric mean", "setting": "[1]", "result": 2.4, "unit": "mg/L"}, {"measurement": "C-reactive protein, End of study, Mean ± SD", "setting": "[1]", "result": "3.3 ± 3.2", "unit": "mg/L"}, {"measurement": "C-reactive protein, Change from baseline to end of study, Mean ± SD", "setting": "oral 3000 mg daily weeks 1-2, 6000 mg daily weeks 3 to 14, n 45", "result": "-0.8 ± 4.7", "unit": "mg/L"}]}]}
